Test results published in patent US11622965B2, “Methods for treating lymphoid malignancies” (ZHEJIANG DTRM BIOPHARMA CO. LTD., priority 2017, dated 2023).
“And” between values parts separate entries of the source, which are not always exact repeats. Equal entries are not always repeated.

Assays:
[1] = China Phase I trial of Compound A monotherapy: pharmacokinetics; type: in vivo, human
Experimental: The pharmacokinetics of Compound A was also evaluated.
Patients who met the following inclusion criteria were enrolled in the trials in China: i) age≥18 years, no gender limits, and provide the informed consent form; ii) B-cell lymphoma classification is based on WHO classified definition, including CLL, small lymphocytic lymphoma (SLL); CLL with 17p-; MCL; WM; DLBCL, etc.; iii) measurable lesion: NHL requires at least one≥2 cm two-dimensional lesion diameter, CLL≥5000 leukemia cells/mm^3, WM IgM≥1000 mg/dL, bone marrow lymph plasma-like cells infiltration, histopathologically diagnosed as DLBCL; iv) patients failed in lymphoma treatment at least once and have no standard therapeutic options; DLBCL patients who are not suitable for or reject autologous stem cell transplantation; and v) ECOG (Eastern Cooperative Oncology Group) performance status 0˜1. Meanwhile, patients who met any one of the following criteria were excluded: i) disease with changes of pathological tissue types (including large cell transformation); ii) patients received other BTK inhibitor therapy (China only); and iii) patients with HIV infection, or HBs-Ag or HBc-Ab positive.
No intrapatient dose escalation of Compound A was permitted.

[2] = U.S. Phase Ia trial of Compound A monotherapy: safety
Experimental: Studies on the 200 mg and 300 mg cohorts were conducted in a standard 3+3 design.
Drug-related adverse events (AEs), including DLT, non-hematologic AEs and hematologic AEs were recorded. […] The PK indexes of single dose administration included AUClast, AUCO-∞, Cmax, tmax, t1/2, CL/F and Vd/F. The PK indexes of steady state under continuous administration included AUCss, Cmax,ss and tmax,ss.

[3] = five patients, 21 day dosing schedule

SMILES: C=CC(=O)N1CC[C@@H](n2nc(-c3ccc(Oc4c(F)c(F)cc(F)c4F)cc3F)c3c(N)ncnc32)C1 [Compound A, 1-((R)-3-(4-amino-3-(2-fluoro-4-(2,3,5,6-tetrafluorophenoxy)phenyl)-1H-pyrazolo[3,4-d]pyrimidin-1-yl)pyrrolidin-1-yl)prop-2-en-1-one]
- Compound A Plasma Levels ([1]; Day 1, 100 mg, 2 h): 107 ng/mL and 150 ng/mL
- Compound A Plasma Levels ([1]; Day 1, 100 mg, 6 h): 22.8 ng/mL and 29.4 ng/mL
- Compound A Plasma Levels ([1]; Day 1, 400 mg, 4 h): 243 ng/mL and 184 ng/mL
- Compound A Plasma Levels ([1]; Day 1, 400 mg, 6 h): 107 ng/mL and 130 ng/mL
- Compound A Plasma Levels ([1]; Day 8, 100 mg, 2 h): 135 ng/mL and 83.0 ng/mL
- Compound A Plasma Levels ([1]; Day 8, 100 mg, 24 h): 1.73 ng/mL and 1.27 ng/mL
- Compound A Plasma Levels ([1]; Day 8, 200 mg, 0 h): 5.13 ng/mL and 3.53 ng/mL
- Compound A Plasma Levels ([1]; Day 8, 200 mg, 1 h): 239 ng/mL
- Compound A Plasma Levels ([1]; Day 8, 200 mg, 2 h): 273 ng/mL and 295 ng/mL
- Compound A Plasma Levels ([1]; Day 8, 400 mg, 4 h): 214 ng/mL and 217 ng/mL
- concentration at 0 h ([1]; human, plasma, oral, 50 mg, Compound A Plasma Levels, Day 1, 50 mg, 0 h): 0 ng/mL
- concentration at 24 h ([1]; human, plasma, oral, 50 mg, Compound A Plasma Levels, Day 1, 50 mg, 24 h): 0 ng/mL
- concentration at 24 h ([1]; human, plasma, oral, 50 mg, Compound A Plasma Levels, Day 8, 50 mg, 24 h): 0 ng/mL
- concentration at 0 h ([1]; human, plasma, oral, 100 mg, Compound A Plasma Levels, Day 1, 100 mg, 0 h): 0 ng/mL
- concentration at 2 h ([1]; human, plasma, oral, 100 mg, Compound A Plasma Levels, Day 1, 100 mg, 2 h): 192 ng/mL
- concentration at 6 h ([1]; human, plasma, oral, 100 mg, Compound A Plasma Levels, Day 1, 100 mg, 6 h): 29.1 ng/mL
- concentration at 2 h ([1]; human, plasma, oral, 100 mg, Compound A Plasma Levels, Day 8, 100 mg, 2 h): 166 ng/mL
- concentration at 24 h ([1]; human, plasma, oral, 100 mg, Compound A Plasma Levels, Day 8, 100 mg, 24 h): 1.34 ng/mL
- concentration at 0 h ([1]; human, plasma, oral, 200 mg, Compound A Plasma Levels, Day 1, 200 mg, 0 h): 0 ng/mL
- concentration at 0 h ([1]; human, plasma, oral, 200 mg, Compound A Plasma Levels, Day 8, 200 mg, 0 h): 3.69 ng/mL
- concentration at 1 h ([1]; human, plasma, oral, 200 mg, Compound A Plasma Levels, Day 8, 200 mg, 1 h): 369 ng/mL
- concentration at 2 h ([1]; human, plasma, oral, 200 mg, Compound A Plasma Levels, Day 8, 200 mg, 2 h): 537 ng/mL
- concentration at 0 h ([1]; human, plasma, oral, 400 mg, Compound A Plasma Levels, Day 1, 400 mg, 0 h): 0 ng/mL
- concentration at 4 h ([1]; human, plasma, oral, 400 mg, Compound A Plasma Levels, Day 1, 400 mg, 4 h): 134 ng/mL
- concentration at 6 h ([1]; human, plasma, oral, 400 mg, Compound A Plasma Levels, Day 1, 400 mg, 6 h): 85.9 ng/mL
- concentration at 4 h ([1]; human, plasma, oral, 400 mg, Compound A Plasma Levels, Day 8, 400 mg, 4 h): 159 ng/mL
- discontinuation due to AEs and deaths ([2]; five patients): No patient discontinued study treatment due to AEs and no patient died on-study or within the 30-day follow-up period
- hematologic single patient events ([2]; five patients): Grade 3 thrombocytopenia and Grade 3 neutropenia
- non-hematologic single patient events ([2]; five patients): Grade 3 lung infection, bronchitis, myalgia, nausea, fatigue and purpura (all Grade 1)
- anemia, patients ([2]; five patients, 50-200 mg daily, 21 day dosing schedule): 60%
- arthralgia, patients [2, 3]: 40%
- contusion, patients [2, 3]: 40%
- grade of adverse events [2, 3]: mostly Grade 1 and 2
- upper respiratory infection, patients [2, 3]: 40%
- tolerability ([2]; three additional patients, 300 mg): well tolerated
